Laboratory results as given in the kinase profiling compilation of Christmann-Franck et al. (2016).

Experiments:
Experiment in all cases: KINOMEscan competition binding
Details in all cases: compound 10.0 µM
ABL1 (human) = ABL1 (human) (UniProt P00519)
[1] = system: ABL1 (human), P00519 [F317I]
ABL2 (human) = ABL2 (human) (UniProt P42684)
ADCK3 (human) = ADCK3 (human) (UniProt Q8NI60)
AKT3 (human) = AKT3 (human) (UniProt Q9Y243)
BMX (human) = BMX (human) (UniProt P51813)
CAMK1G (human) = CAMK1G (human) (UniProt Q96NX5)
CAMK2A (human) = CAMK2A (human) (UniProt Q9UQM7)
CAMK4 (human) = CAMK4 (human) (UniProt Q16566)
CDC42BPB (human) = CDC42BPB (human) (UniProt Q9Y5S2)
CDKL2 (human) = CDKL2 (human) (UniProt Q92772)
CSK (human) = CSK (human) (UniProt P41240)
DDR1 (human) = DDR1 (human) (UniProt Q08345)
Chain of DDR1 (human) (Q08345 whole entry, looked up): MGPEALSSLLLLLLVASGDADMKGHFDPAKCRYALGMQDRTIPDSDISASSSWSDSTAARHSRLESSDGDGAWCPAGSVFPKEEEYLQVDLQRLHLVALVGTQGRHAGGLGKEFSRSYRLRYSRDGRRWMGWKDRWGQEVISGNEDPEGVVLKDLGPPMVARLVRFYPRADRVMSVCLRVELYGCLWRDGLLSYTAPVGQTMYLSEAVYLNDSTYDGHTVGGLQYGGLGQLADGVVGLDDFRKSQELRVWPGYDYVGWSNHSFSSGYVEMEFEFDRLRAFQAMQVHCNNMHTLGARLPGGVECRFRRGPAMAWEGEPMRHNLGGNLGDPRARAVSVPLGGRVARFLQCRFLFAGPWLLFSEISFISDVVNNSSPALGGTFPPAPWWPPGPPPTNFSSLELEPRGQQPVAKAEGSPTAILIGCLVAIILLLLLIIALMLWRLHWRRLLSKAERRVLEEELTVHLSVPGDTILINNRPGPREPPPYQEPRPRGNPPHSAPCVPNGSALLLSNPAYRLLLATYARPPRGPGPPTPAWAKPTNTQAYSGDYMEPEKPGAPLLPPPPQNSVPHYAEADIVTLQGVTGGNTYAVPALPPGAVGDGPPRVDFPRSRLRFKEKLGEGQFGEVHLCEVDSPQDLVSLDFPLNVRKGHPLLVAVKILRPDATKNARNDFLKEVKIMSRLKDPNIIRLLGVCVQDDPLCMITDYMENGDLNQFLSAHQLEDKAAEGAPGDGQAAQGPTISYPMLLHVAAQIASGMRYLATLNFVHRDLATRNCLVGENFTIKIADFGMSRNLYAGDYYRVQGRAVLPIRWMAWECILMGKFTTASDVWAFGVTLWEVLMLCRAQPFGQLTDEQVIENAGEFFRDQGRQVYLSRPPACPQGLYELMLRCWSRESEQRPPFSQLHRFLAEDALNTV

[2] = system: EGFR (human), P00533 [L858R]
EPHA4 (human) = EPHA4 (human) (UniProt P54764)
EPHB1 (human) = EPHB1 (human) (UniProt P54762)
FES (human) = FES (human) (UniProt P07332)
FGFR1 (human) = FGFR1 (human) (UniProt P11362)
IKBKB (human) = IKBKB (human) (UniProt O14920)
[3] = target: JAK1 JH1 catalytic (human) (UniProt P23458)
Chain of JAK1 JH1 catalytic (human) (P23458 whole entry, looked up): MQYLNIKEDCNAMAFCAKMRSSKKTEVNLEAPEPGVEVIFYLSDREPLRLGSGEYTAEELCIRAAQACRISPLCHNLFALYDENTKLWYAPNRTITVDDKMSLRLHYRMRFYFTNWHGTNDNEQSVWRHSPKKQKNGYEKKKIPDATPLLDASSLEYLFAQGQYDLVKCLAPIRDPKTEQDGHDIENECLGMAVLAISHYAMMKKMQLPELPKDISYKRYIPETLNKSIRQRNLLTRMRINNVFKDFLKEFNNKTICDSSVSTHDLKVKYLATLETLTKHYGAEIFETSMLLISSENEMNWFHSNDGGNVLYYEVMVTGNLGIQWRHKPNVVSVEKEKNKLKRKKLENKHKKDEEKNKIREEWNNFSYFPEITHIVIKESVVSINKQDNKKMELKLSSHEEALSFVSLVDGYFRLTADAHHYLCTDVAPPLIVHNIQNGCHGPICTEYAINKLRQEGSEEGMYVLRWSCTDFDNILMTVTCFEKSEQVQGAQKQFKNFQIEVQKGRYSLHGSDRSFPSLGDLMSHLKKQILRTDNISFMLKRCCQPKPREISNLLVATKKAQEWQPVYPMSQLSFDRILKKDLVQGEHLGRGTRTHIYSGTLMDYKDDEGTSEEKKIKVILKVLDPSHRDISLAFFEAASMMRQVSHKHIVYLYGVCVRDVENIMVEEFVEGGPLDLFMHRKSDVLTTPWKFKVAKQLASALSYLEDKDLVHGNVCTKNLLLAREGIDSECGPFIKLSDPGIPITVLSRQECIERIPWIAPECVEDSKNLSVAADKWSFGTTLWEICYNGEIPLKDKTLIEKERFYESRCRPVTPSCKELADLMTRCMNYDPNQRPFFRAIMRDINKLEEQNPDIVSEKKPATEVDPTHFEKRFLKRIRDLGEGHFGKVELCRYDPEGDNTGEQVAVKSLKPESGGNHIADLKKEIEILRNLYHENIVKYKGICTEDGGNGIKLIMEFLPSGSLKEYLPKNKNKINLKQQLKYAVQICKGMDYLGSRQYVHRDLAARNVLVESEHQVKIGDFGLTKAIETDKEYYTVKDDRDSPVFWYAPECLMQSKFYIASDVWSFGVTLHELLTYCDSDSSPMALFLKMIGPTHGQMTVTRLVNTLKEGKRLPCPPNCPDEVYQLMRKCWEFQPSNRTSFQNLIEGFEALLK

LTK (human) = LTK (human) (UniProt P29376)
MAP4K1 (human) = MAP4K1 (human) (UniProt Q92918)
Chain of MAP4K1 (human) (Q92918 whole entry, looked up): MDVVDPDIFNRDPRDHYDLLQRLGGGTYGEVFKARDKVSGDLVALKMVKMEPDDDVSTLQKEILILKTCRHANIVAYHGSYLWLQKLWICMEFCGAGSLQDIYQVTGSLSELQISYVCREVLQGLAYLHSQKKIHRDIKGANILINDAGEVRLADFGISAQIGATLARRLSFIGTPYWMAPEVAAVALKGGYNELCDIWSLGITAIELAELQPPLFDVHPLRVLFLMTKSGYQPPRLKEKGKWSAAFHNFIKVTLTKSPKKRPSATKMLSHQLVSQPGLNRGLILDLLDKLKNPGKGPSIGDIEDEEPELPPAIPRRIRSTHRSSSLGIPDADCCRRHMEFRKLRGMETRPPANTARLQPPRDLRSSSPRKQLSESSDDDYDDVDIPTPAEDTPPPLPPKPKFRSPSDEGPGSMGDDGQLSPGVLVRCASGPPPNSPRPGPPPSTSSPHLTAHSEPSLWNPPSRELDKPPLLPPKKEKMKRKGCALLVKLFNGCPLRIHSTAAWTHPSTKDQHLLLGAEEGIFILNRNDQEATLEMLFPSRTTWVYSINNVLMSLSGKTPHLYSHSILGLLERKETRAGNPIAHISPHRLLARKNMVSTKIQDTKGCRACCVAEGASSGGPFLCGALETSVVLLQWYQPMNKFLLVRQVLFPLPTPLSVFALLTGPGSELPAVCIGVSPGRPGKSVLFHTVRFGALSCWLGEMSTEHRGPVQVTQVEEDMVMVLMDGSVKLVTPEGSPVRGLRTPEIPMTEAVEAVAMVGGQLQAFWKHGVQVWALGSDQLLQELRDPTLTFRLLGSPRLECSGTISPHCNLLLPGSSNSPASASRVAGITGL

MAP4K5 (human) = MAP4K5 (human) (UniProt Q9Y4K4)
Chain of MAP4K5 (human) (Q9Y4K4 whole entry, looked up): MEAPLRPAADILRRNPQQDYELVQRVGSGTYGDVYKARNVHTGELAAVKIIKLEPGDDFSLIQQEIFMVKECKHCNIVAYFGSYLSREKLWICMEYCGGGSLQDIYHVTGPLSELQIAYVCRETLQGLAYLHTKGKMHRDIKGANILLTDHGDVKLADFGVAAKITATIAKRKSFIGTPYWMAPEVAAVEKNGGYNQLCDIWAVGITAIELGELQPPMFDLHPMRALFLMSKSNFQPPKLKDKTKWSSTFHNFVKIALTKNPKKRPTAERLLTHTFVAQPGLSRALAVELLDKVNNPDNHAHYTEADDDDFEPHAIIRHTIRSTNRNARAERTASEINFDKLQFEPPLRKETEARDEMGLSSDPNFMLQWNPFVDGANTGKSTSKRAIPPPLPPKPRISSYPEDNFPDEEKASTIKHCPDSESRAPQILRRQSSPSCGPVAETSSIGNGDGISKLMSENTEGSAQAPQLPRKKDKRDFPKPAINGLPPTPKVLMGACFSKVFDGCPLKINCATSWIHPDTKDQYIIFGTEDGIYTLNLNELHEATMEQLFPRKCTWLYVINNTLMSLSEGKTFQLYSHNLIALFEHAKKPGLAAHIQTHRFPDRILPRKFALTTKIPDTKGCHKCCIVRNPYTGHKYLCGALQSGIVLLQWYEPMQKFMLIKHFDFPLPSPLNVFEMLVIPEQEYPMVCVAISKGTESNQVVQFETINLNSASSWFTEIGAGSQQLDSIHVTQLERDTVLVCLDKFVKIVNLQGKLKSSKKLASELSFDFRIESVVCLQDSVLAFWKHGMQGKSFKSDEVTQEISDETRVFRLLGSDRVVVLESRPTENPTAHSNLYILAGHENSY

MAPK13 (human) = MAPK13 (human) (UniProt O15264)
MAPK9 (human) = MAPK9 (human) (UniProt P45984)
MUSK (human) = MUSK (human) (UniProt O15146)
NTRK1 (human) = NTRK1 (human) (UniProt P04629)
NUAK2 (human) = NUAK2 (human) (UniProt Q9H093)
PAK3 (human) = PAK3 (human) (UniProt O75914)
PAK7 (human) = PAK7 (human) (UniProt Q9P286)
PKN2 (human) = PKN2 (human) (UniProt Q16513)
PRKCD (human) = PRKCD (human) (UniProt Q05655)
PRKCE (human) = PRKCE (human) (UniProt Q02156)
PRKG1 (human) = PRKG1 (human) (UniProt Q13976)
PTK2B (human) = PTK2B (human) (UniProt Q14289)
RPS6KA3 KD1 (human) = RPS6KA3 KD1 (human) (UniProt P51812)
RPS6KA6 KD1 (human) = RPS6KA6 KD1 (human) (UniProt Q9UK32)
SLK (human) = SLK (human) (UniProt Q9H2G2)
SRPK1 (human) = SRPK1 (human) (UniProt Q96SB4)
STK32B (human) = STK32B (human) (UniProt Q9NY57)
ULK1 (human) = ULK1 (human) (UniProt O75385)
WEE1 (human) = WEE1 (human) (UniProt P30291)

Chain of ABL1 (human) (P00519 whole entry, looked up): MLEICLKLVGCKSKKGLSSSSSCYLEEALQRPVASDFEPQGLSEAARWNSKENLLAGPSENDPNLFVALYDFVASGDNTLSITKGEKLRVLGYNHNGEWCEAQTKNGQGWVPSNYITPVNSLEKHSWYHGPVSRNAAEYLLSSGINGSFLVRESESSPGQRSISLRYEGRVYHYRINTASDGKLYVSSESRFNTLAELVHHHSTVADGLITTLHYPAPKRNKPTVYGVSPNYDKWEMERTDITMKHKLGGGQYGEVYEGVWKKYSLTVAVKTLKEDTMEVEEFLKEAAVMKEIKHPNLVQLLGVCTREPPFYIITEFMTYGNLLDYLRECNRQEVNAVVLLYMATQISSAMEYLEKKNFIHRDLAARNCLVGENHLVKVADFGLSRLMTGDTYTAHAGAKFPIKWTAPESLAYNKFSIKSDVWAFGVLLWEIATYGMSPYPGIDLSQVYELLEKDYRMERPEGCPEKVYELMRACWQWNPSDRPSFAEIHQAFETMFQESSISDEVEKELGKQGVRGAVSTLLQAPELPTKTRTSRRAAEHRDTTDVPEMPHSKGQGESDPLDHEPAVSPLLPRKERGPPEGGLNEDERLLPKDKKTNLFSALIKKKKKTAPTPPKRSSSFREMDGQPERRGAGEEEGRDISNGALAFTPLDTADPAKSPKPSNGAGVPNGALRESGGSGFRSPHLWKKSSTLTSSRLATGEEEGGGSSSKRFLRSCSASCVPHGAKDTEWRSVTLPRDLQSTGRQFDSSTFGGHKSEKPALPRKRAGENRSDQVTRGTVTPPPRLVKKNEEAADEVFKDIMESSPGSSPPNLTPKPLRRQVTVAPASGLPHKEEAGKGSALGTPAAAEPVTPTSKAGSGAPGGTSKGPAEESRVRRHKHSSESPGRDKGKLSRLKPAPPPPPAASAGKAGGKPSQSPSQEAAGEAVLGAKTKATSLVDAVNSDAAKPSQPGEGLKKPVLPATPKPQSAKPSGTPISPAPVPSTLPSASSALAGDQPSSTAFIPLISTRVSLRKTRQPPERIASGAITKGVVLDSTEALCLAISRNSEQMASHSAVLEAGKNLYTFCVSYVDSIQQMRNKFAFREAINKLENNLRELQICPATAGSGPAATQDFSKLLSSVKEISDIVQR
Chain of ABL1 (human), P00519 [F317I] (P00519 whole entry F317I, looked up): as the sequence (P00519 whole entry, looked up) above, with F317I counted along it

In the case of `CN1C(=O)c2ccccc2N(C)c2nc(NS(=O)(=O)c3ccc(N)cc3)ncc21`, the kinase still bound, per cent of control (ABL1 (human)) is reported as 99%, the kinase still bound, per cent of control [1] is reported as 100% and the kinase still bound, per cent of control (ABL2 (human)) is reported as 100%. The kinase still bound, per cent of control (ADCK3 (human)) was 99%, the kinase still bound, per cent of control (AKT3 (human)) was 88% and the kinase still bound, per cent of control (BMX (human)) was 100%. It also gave a kinase still bound, per cent of control (CAMK1G (human)) of 100%, a kinase still bound, per cent of control (CAMK2A (human)) of 100% and a kinase still bound, per cent of control (CAMK4 (human)) of 100%. For the same compound, the kinase still bound, per cent of control (CDC42BPB (human)) was 100%, the kinase still bound, per cent of control (CDKL2 (human)) was 100% and the kinase still bound, per cent of control (CSK (human)) was 100%. The kinase still bound, per cent of control (DDR1 (human)) was 100%, the kinase still bound, per cent of control [2] was 100% and the kinase still bound, per cent of control (EPHA4 (human)) was 100%. For the same compound, the kinase still bound, per cent of control (EPHB1 (human)) was 100%, the kinase still bound, per cent of control (FES (human)) was 90% and the kinase still bound, per cent of control (FGFR1 (human)) was 100%. For the same compound, the kinase still bound, per cent of control (IKBKB (human)) was 100%, the kinase still bound, per cent of control [3] was 100% and the kinase still bound, per cent of control (LTK (human)) was 82%. The kinase still bound, per cent of control (MAP4K1 (human)) was 80%, the kinase still bound, per cent of control (MAP4K5 (human)) was 100% and the kinase still bound, per cent of control (MAPK13 (human)) was 90%. The kinase still bound, per cent of control (MAPK9 (human)) was 100%, the kinase still bound, per cent of control (MUSK (human)) was 100% and the kinase still bound, per cent of control (NTRK1 (human)) was 77%. It also gave a kinase still bound, per cent of control (NUAK2 (human)) of 70%, a kinase still bound, per cent of control (PAK3 (human)) of 76% and a kinase still bound, per cent of control (PAK7 (human)) of 88%. For the same compound, the kinase still bound, per cent of control (PKN2 (human)) was 70%, the kinase still bound, per cent of control (PRKCD (human)) was 100% and the kinase still bound, per cent of control (PRKCE (human)) was 100%. The kinase still bound, per cent of control (PRKG1 (human)) was 100%, the kinase still bound, per cent of control (PTK2B (human)) was 100% and the kinase still bound, per cent of control (RPS6KA3 KD1 (human)) was 100%. It also gave a kinase still bound, per cent of control (RPS6KA6 KD1 (human)) of 100%, a kinase still bound, per cent of control (SLK (human)) of 100% and a kinase still bound, per cent of control (SRPK1 (human)) of 100%. For the same compound, the kinase still bound, per cent of control (STK32B (human)) was 100%, the kinase still bound, per cent of control (ULK1 (human)) was 85% and the kinase still bound, per cent of control (WEE1 (human)) was 99%.
For `CN1C(=O)c2ccccc2N(C)c2nc(Nc3ccc(N4CCC(O)CC4)cc3)ncc21`, the kinase still bound, per cent of control (ABL1 (human)) was 3.2%, the kinase still bound, per cent of control [1] was 28% and the kinase still bound, per cent of control (ABL2 (human)) was 33%. For the same compound, the kinase still bound, per cent of control (ADCK3 (human)) was 100%, the kinase still bound, per cent of control (AKT3 (human)) was 100% and the kinase still bound, per cent of control (BMX (human)) was 89%. The kinase still bound, per cent of control (CAMK1G (human)) was 91%, the kinase still bound, per cent of control (CAMK2A (human)) was 86% and the kinase still bound, per cent of control (CAMK4 (human)) was 100%. It also gave a kinase still bound, per cent of control (CDC42BPB (human)) of 100%, a kinase still bound, per cent of control (CDKL2 (human)) of 100% and a kinase still bound, per cent of control (CSK (human)) of 91%. For the same compound, the kinase still bound, per cent of control (DDR1 (human)) was 68%, the kinase still bound, per cent of control [2] was 93% and the kinase still bound, per cent of control (EPHA4 (human)) was 97%. For the same compound, the kinase still bound, per cent of control (EPHB1 (human)) was 100%, the kinase still bound, per cent of control (FES (human)) was 100% and the kinase still bound, per cent of control (FGFR1 (human)) was 61%. For the same compound, the kinase still bound, per cent of control (IKBKB (human)) was 86%, the kinase still bound, per cent of control [3] was 30% and the kinase still bound, per cent of control (LTK (human)) was 100%. It also gave a kinase still bound, per cent of control (MAP4K1 (human)) of 64%, a kinase still bound, per cent of control (MAP4K5 (human)) of 85% and a kinase still bound, per cent of control (MAPK13 (human)) of 100%. The kinase still bound, per cent of control (MAPK9 (human)) was 100%, the kinase still bound, per cent of control (MUSK (human)) was 100% and the kinase still bound, per cent of control (NTRK1 (human)) was 64%. For the same compound, the kinase still bound, per cent of control (NUAK2 (human)) was 23%, the kinase still bound, per cent of control (PAK3 (human)) was 37% and the kinase still bound, per cent of control (PAK7 (human)) was 87%. It also gave a kinase still bound, per cent of control (PKN2 (human)) of 92%, a kinase still bound, per cent of control (PRKCD (human)) of 100% and a kinase still bound, per cent of control (PRKCE (human)) of 99%. The kinase still bound, per cent of control (PRKG1 (human)) was 100%, the kinase still bound, per cent of control (PTK2B (human)) was 78% and the kinase still bound, per cent of control (RPS6KA3 KD1 (human)) was 85%. It also gave a kinase still bound, per cent of control (RPS6KA6 KD1 (human)) of 61%, a kinase still bound, per cent of control (SLK (human)) of 100% and a kinase still bound, per cent of control (SRPK1 (human)) of 100%. The kinase still bound, per cent of control (STK32B (human)) was 100%, the kinase still bound, per cent of control (ULK1 (human)) was 16% and the kinase still bound, per cent of control (WEE1 (human)) was 100%.
